For 42 compounds, IC50 results are on record in patent US20210238139A1, “MODULATORS OF TRYPTOPHAN CATABOLISM” (E-Therapeutics PLC, priority 2018, published 2021).

In this experiment the test system is SK-OV-3 cells. The experiment is described as follows: Effect of compounds on tryptophan catabolism in SK-OV-3 cell line (inhibition of kynurenine production, LC-MS/MS). The settings on record: Homo sapiens, SK-OV-3, 24 h, SK-OV-3 cell line, 24 h incubation, kynurenine in supernatant by LC-MS/MS; read-out: IC50 Ranges (ic50 values for inhibition of Kynurenine production). The format is cell-based. In short, it runs like this: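 Cells seeded overnight in McCoy's 5A/10% FBS, then switched to DMEM F-12 with 6 mg/mL L-tryptophan; compounds added at 8 3-fold dilutions from 30 μM, in duplicate, 24 h at 37 °C. Supernatant kynurenine measured by LC-MS/MS; ATP-based viability run in parallel; IC50 from % inhibition of Kyn production.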
What is called IC50 is the point on the concentration scale where inhibition reaches its midpoint. For `Cc1ccc(CN(C(=O)Nc2ccc(C#N)cc2)[C@H]2C[C@H](F)C2)o1` [Compound 272, 3-(4-cyanophenyl)-1-(3-fluorocyclobutyl)-1-[(5-methyl-2-furyl)methyl]urea], the IC50 lay within 500 to 1000 nM. Next, `Cc1ccc(CN(C(=O)Nc2ccc(C#N)cc2)C23CC(C2)C3)o1` [Compound 285, 1-(1-bicyclo[1.1.1]pentanyl)-3-(4-cyanophenyl)-1-[(5-methyl-2-furyl)methyl]urea]: 100 to 500 nM. Next, `O=C(Nc1ccc(Cl)cc1)N(Cc1cccnc1)C1CCCC1` [Compound 66, 3-(4-chlorophenyl)-1-cyclopentyl-1-(3-pyridylmethyl)urea]: 100 to 500 nM; `Cc1ccc(CN(C(=O)Nc2ccc3c(c2)CN(C)C3=O)C2CCCC2)o1` [Compound 312, 1-cyclopentyl-1-[(5-methyl-2-furyl)methyl]-3-(2-methyl-1-oxo-isoindolin-5-yl)urea]: 1000 to 5000 nM; `N#Cc1cccc(CN(C(=O)Nc2ccc(Cl)cc2)C2CCCC2)n1` [Compound 157, 3-(4-chlorophenyl)-1-[(6-cyano-2-pyridyl)methyl]-1-cyclopentyl-urea]: 100 to 500 nM. The value for `Cc1ccc(CN(C(=O)Nc2ccccc2)C2CCN(C(=O)OC(C)(C)C)CC2)o1` [Compound 136, tert-butyl 4-[(5-methyl-2-furyl)methyl-(phenylcarbamoyl)amino]piperidine-1-carboxylate] was more than 5000 nM; that for `Cc1ccc(CN(C(=O)Nc2ccc(C#N)cc2)C2CCCC2C#N)o1` (stereo not drawn) [Compound 219, 1-(2-cyanocyclopentyl)-3-(4-cyanophenyl)-1-[(5-methyl-2-furyl)methyl]urea] was 100 to 500 nM. As for `N#Cc1ccnc(CN(C(=O)Nc2ccc(Cl)cc2)C2CCCC2)c1` [Compound 116, 3-(4-chlorophenyl)-1-[(4-cyano-2-pyridyl)methyl]-1-cyclopentyl-urea], the IC50 is 100 to 500 nM. The value for `CC(c1cccc(C#N)c1)N(C(=O)Nc1ccc(Cl)cc1)C1CCCC1` (racemic) [Compound 173, 3-(4-chlorophenyl)-1-[1-(3-cyanophenyl)ethyl]-1-cyclopentyl-urea] was less than 100 nM. Regarding `Cc1ccc(CN(C(=O)Nc2nnc(-c3cc4ccccc4o3)o2)C2CCCC2)o1` [Compound 151, 3-[5-(benzofuran-2-yl)-1,3,4-oxadiazol-2-yl]-1-cyclopentyl-1-[(5-methyl-2-furyl)methyl]urea], the IC50 was in the range of 500 to 1000 nM.

As to `N#Cc1cc(CN(C(=O)Nc2ccc(F)cc2)C2CCCC2)ccc1F` [Compound 53, 1-[(3-cyano-4-fluoro-phenyl)methyl]-1-cyclopentyl-3-(4-fluorophenyl)urea], the IC50 lay in the range of 100 to 500 nM. Next, `Cc1ccc(CN(C(=O)Nc2ccccc2)c2ncco2)o1` [Compound 179, 1-[(5-methyl-2-furyl)methyl]-1-oxazol-2-yl-3-phenyl-urea]: more than 5000 nM.

`Cc1ccc(CN(C(=O)Nc2ccc(Cl)cc2)c2ncccc2C)o1` [Compound 318, 3-(4-chlorophenyl)-1-[(5-methyl-2-furyl)methyl]-1-(3-methyl-2-pyridyl)urea]: the IC50 was less than 100 nM. For `O=C(NCCc1ccccc1)N(Cc1ccco1)C1CCCC1` [Compound 29, 1-cyclopentyl-1-(2-furylmethyl)-3-(2-phenylethyl)urea], the IC50 is more than 5000 nM.

Regarding `N#Cc1cncc(CN(C(=O)Nc2ccc(Cl)cc2)C2CCCC2)c1` [Compound 115, 3-(4-chlorophenyl)-1-[(5-cyano-3-pyridyl)methyl]-1-cyclopentyl-urea], the IC50 is 100 to 500 nM.

Take `O=C(Nc1ccncc1)N(Cc1cccc(C(F)(F)F)c1)C1CCCC1` [Compound 88, 1-cyclopentyl-3-(4-pyridyl)-1-[[3-(trifluoromethyl)phenyl]methyl]urea]: the IC50 fell in the range of 500 to 1000 nM. As for `N#Cc1ccc(NC(=O)N(Cc2ccc3ncsc3c2)C2CCOCC2)cc1` [Compound 265, 1-(1,3-benzothiazol-6-ylmethyl)-3-(4-cyanophenyl)-1-tetrahydropyran-4-yl-urea], the IC50 lay in the range of 1000 to 5000 nM. With `CC(c1cccc(C#N)c1)N(C(=O)Nc1ccc(C#N)cc1)C1CCCC1` (racemic) [Compound 188, 3-(4-cyanophenyl)-1-[1-(3-cyanophenyl)ethyl]-1-cyclopentyl-urea], the IC50 lay within 100 to 500 nM. With `CN(Cc1cccs1)C(=O)Nc1ccc(Cl)c(Cl)c1` [Compound 200, 3-(3,4-dichlorophenyl)-1-methyl-1-(2-thienylmethyl)urea], the IC50 is 1000 to 5000 nM. With `Cc1ccc(CN(C(=O)NCCc2ccccc2)C2CCCC2)o1` [Compound 181, 1-cyclopentyl-1-[(5-methyl-2-furyl)methyl]-3-(2-phenylethyl)urea], the IC50 is 1000 to 5000 nM.

`Cc1ccc(CN(C(=O)Nc2ccc(C#CCN(C)C)cc2)C2CCCC2)o1` [Compound 112, 1-cyclopentyl-3-[4-[3-(dimethylamino)prop-1-ynyl]phenyl]-1-[(5-methyl-2-furyl)methyl]urea]: the IC50 lay in the range of 500 to 1000 nM.

As for `O=C(Nc1ccc(C(F)(F)F)cc1)N(Cc1cccs1)C1CCCC1` [Compound 13, 1-cyclopentyl-1-(2-thienylmethyl)-3-[4-(trifluoromethyl)phenyl]urea], the IC50 is 1000 to 5000 nM. Next, `Cc1ccc(CN(C(=O)Nc2ccc(C#N)cc2)c2ncnn2C)o1` [Compound 266, 3-(4-cyanophenyl)-1-[(5-methyl-2-furyl)methyl]-1-(2-methyl-1,2,4-triazol-3-yl) urea]: 1000 to 5000 nM; `N#Cc1ccc(NC(=O)N(Cc2nc3c(s2)COCC3)C2CCCC2)cc1` [Compound 310, 3-(4-cyanophenyl)-1-cyclopentyl-1-(6,7-dihydro-4H-pyrano[4,3-d]thiazol-2-ylmethyl)urea]: 1000 to 5000 nM. Next, `Cc1ccc(CN(C(=O)Nc2ccc(Cl)cc2)C23CC(C2)C3)o1` [Compound 284, 1-(1-bicyclo[1.1.1]pentanyl)-3-(4-chlorophenyl)-1-[(5-methyl-2-furyl)methyl]urea]: 100 to 500 nM; `Cc1ccc(CN(C(=O)Nc2nc(-c3ccccc3)cs2)C2CCCC2)o1` [Compound 129, 1-cyclopentyl-1-[(5-methyl-2-furyl)methyl]-3-(4-phenylthiazol-2-yl)urea]: 1000 to 5000 nM. As for `COc1ccc(CN(C(=O)NCCc2ccccc2)C2CCCC2)cc1C` [Compound 46, 1-cyclopentyl-1-[(4-methoxy-3-methyl-phenyl)methyl]-3-(2-phenylethyl)urea], the IC50 was 1000 to 5000 nM. Next, `Cc1nocc1N(Cc1cccc(C#N)n1)C(=O)Nc1ccc(Cl)cc1` [Compound 313, 3-(4-chlorophenyl)-1-[(6-cyano-2-pyridyl)methyl]-1-(3-methylisoxazol-4-yl)urea]: 100 to 500 nM; `CN1CCC(N(Cc2ccc3ncsc3c2)C(=O)Nc2ccc(C#N)cc2)CC1` [Compound 264, 1-(1,3-benzothiazol-6-ylmethyl)-3-(4-cyanophenyl)-1-(1-methyl-4-piperidyl) urea]: more than 5000 nM; `Cc1ccc(CN(C(=O)Nc2ccccc2)C2CCCC2)o1` [Compound 176, 1-cyclopentyl-1-[(5-methyl-2-furyl)methyl]-3-phenyl-urea]: 100 to 500 nM. For the compound `O=C(Nc1ccc(F)cc1)N(Cc1ncccn1)C1CCCC1` [Compound 72, 1-cyclopentyl-3-(4-fluorophenyl)-1-(pyrimidin-2-ylmethyl)urea], the IC50 was more than 5000 nM. For the compound `COc1ncc(CN(C(=O)Nc2ccccc2)C2CCCC2)s1` [Compound 49, 1-cyclopentyl-1-[(2-methoxythiazol-5-yl)methyl]-3-phenyl-urea], the IC50 was 1000 to 5000 nM. Next, `O=C(Nc1ccc(F)c(F)c1)N(Cc1cccc(OC(F)(F)F)c1)C1CCCC1` [Compound 142, 1-cyclopentyl-3-(3,4-difluorophenyl)-1-[[3 (trifluoromethoxy)phenyl]methyl]urea]: 1000 to 5000 nM; `CC(c1cccc(C#N)c1)N(C(=O)Nc1ccc(C#N)cc1)C1CCC1` (racemic) [Compound 184, 3-(4-cyanophenyl)-1-[1-(3-cyanophenyl)ethyl]-1-cyclobutyl-urea]: 100 to 500 nM; `Cc1ccc(CN(C(=O)Nc2ccc(Cl)cc2)C2CC(F)(F)C2)o1` [Compound 247, 3-(4-chlorophenyl)-1-(3,3-difluorocyclobutyl)-1-[(5-methyl-2-furyl)methyl]urea]: 100 to 500 nM. As to `Cc1ncc(CN(C(=O)Nc2ccc(F)cc2)C2CCCC2)o1` [Compound 145, 1-cyclopentyl-3-(4-fluorophenyl)-1-[(2-methyloxazol-5-yl)methyl]urea], the IC50 was in the range of 1000 to 5000 nM. The value for `O=C(Nc1ccc(F)cc1)N(Cc1cccs1)C1CCCC1` [Compound 34, 1-cyclopentyl-3-(4-fluorophenyl)-1-(2-thienylmethyl)urea] was 100 to 500 nM; that for `O=C(NC1CCCCC1)N(Cc1cccs1)C1CCCC1` [Compound 12, 3-cyclohexyl-1-cyclopentyl-1-(2-thienylmethyl) urea] was 1000 to 5000 nM. As for `Cc1ccc(CN(C(=O)Nc2cccc(C#N)c2)C2CCCC2)o1` [Compound 93, 3-(3-cyanophenyl)-1-cyclopentyl-1-[(5-methyl-2-furyl)methyl]urea], the IC50 lay within 1000 to 5000 nM. On to `CC(=O)c1ccc(NC(=O)N(Cc2ccc(C)o2)C2CCCC2)cc1` [Compound 94, 3-(4-acetylphenyl)-1-cyclopentyl-1-[(5-methyl-2-furyl)methyl]urea], for which the IC50 lay within 1000 to 5000 nM. For `COc1cc(NC(=O)N(Cc2ccc(C)o2)C2CCCC2)ccc1-n1cc(CO)nn1` [Compound 323, 1-cyclopentyl-[4-[4-(hydroxymethyl)triazol-1-yl]-3-methoxy-phenyl]-1-[(5-methyl-2-furyl)methyl]urea], the IC50 lay in the range of 100 to 500 nM. `O=C(Nc1ccc(F)c(F)c1)N(Cc1nccs1)C1CCCC1` [Compound 37, 1-cyclopentyl-3-(3,4-difluorophenyl)-1-(thiazol-2-ylmethyl)urea]: the IC50 lay in the range of 1000 to 5000 nM.
